Legend:
Format in all cases: physicochemical
[1] = DLS check for fragment aggregation in aqueous conditions; conditions: 15 mM, 5% DMSO
Experimental: Next, we sought to understand whether fragment hits were solely bound to the membrane-embedded form of GPx4 or could also bind to the aqueous form. We performed aqueous binding experiments with 3 fragment hits with varying hydrophobicities. Of the fragment hits with Kd < 1 mM, the most hydrophobic fragment (fragment 5, cLog D 2.05, 5-hydroxy-1,3-benzoxathiol-2-one) and a hydrophilic fragment with the strongest affinity (fragment 6, cLog D −2.14, (2-methoxyethyl)(4-pyridinylmethyl)amine hydrochloride) were selected, along with a compound with an amphipathic structure and only modest hydrophobicity (fragment 1, cLog D 1.05, 4-(phenylamino)-1,2-dihydropyridin-2-one). Aqueous GPx4 was combined with 400 μM of either fragments 1, 5, or 6 to directly compare to the mmRM experiments. […] Since our fragments have variable degrees of solubility and partitioning, we realized that a hydrophilic fragment like 6 may partition into the water core of the mmRM, essentially causing a concentration effect as observed previously.[32],[33] […]
Fragments 1, 5, and 6 were selected to perform proof-of-concept experiments in bulk aqueous conditions. […] However, the 100 mM Bis-Tris at pH 6.0 ensured that the pH was not altered. ^15N-HSQC experiments were collected, and CSPs were analyzed and compared to the top-shifting resonances determined from the mmRM experiments. […]

[2] = Fragment partitioning in DHPC/DMPC bicelles by 2D 1H-1H NOESY; conditions: 5 mM fragment, 100% D2O
Description: To confirm partitioning behavior, we tested fragments in DHPC/DMPC bicelles, which use a bulk aqueous solvent, and the hydrophobic phase is confined to the bicelle interior. To successfully collect NOESY data, the sample solvent was composed of 100% D2O. […] Together, the results highlight the partitioning behavior of fragments that bind to GPx4. Hydrophilic, hydrophobic, or fragments that partition to the surfactant shell are all capable of binding to the membrane-bound state of GPx4 and may be detected using this method.
Partitioning coefficients for fragment hits and analogues were calculated using a Marvin Log D calculator (Chemaxon) and were used to prioritize fragments for 2D NOESYs. mmRMs were premade as previously described and loaded with 5 mM dried fragment 1, 5, or 6 before shaking overnight. A high concentration of fragments is needed for these experiments to observe the intermolecular NOEs between the fragments and the membrane model components. For the DHPC/DMPC samples, the q = 1.0 bicelles were constructed routinely,[55] as described in the Supporting Information, with an additional step to ensure the complete removal of water before experimentation. An aliquot of buffer (100 mM Bis-Tris pH 6.0, 100 mM NaCl, and 10 mM DTT) was frozen and freeze-dried overnight to remove residual water. The dried buffer was then resuspended in 100% D2O, mixed, and frozen before another round of freeze-drying. The components were then resuspended in 100% D2O again before being incorporated into the DHPC fraction of the bicelle. The DHPC solution was then mixed with dried DMPC, and bicelle formation proceeded. The NOESY experimental design was based on a previous work.[60] All NMR spectra were collected at 25 °C on a 700 MHz Bruker Avance III instrument. The 2D data was collected with a 90° pulse width between 10.2 and 11.0 μs, which was optimized prior to each experiment. 128 complex increments were collected in the State-TPPI mode with 8 scans per increment, 2 s recycle time, and 250 ms mixing time. […]

[3] = Fragment partitioning in DLPC/DPC mmRMs by 2D 1H-1H NOESY; conditions: 5 mM fragment, deuterated pentane and hexanol, no GPx4
Experimental: We sought to understand the potential membrane partitioning of these fragments by evaluating their behavior in mmRMs, again using fragments 1, 5, and 6 as our benchmarks. To evaluate fragment partitioning in the mmRM system, 2D ^1H–^1H NOESY experiments were performed, which report on the spatial proximity of intra- and intermolecular nuclei. […] The mmRMs were constructed from deuterated pentane and hexanol to reduce solvent signal and associated NOESY artifacts, which were still present, but NOESY measurements were possible.[60] […] Fragment 5 was the most hydrophobic fragment hit from this screen with a predicted cLog D of ∼2. […] A lack of NOEs to pentane is due to the necessity of using deuterated pentane for artifact reduction and attempts to directly observe solvent NOEs failed. The most hydrophilic fragment, fragment 6 with a predicted cLog D of about −2, is expected to predominantly have intermolecular interactions with the water phase of the mmRM (Figures 5c and S4c). However, interference from the water peak introduced streaking and precluded the visualization of clear cross-peaks.
Partitioning coefficients for fragment hits and analogues were calculated using a Marvin Log D calculator (Chemaxon) and were used to prioritize fragments for 2D NOESYs. mmRMs were premade as previously described and loaded with 5 mM dried fragment 1, 5, or 6 before shaking overnight. A high concentration of fragments is needed for these experiments to observe the intermolecular NOEs between the fragments and the membrane model components. For the DHPC/DMPC samples, the q = 1.0 bicelles were constructed routinely,[55] as described in the Supporting Information, with an additional step to ensure the complete removal of water before experimentation. An aliquot of buffer (100 mM Bis-Tris pH 6.0, 100 mM NaCl, and 10 mM DTT) was frozen and freeze-dried overnight to remove residual water. The dried buffer was then resuspended in 100% D2O, mixed, and frozen before another round of freeze-drying. […]

Compound | Fragment aggregation by DLS [1] | Partitioning in bicelles (intermolecular NOEs) [2] | Partitioning in mmRM (intermolecular NOEs) [3]
O=c1cc(Nc2ccccc2)cc[nH]1 [Fragment 1, 4-(phenylamino)-1,2-dihydropyridin-2-one] | a small population of large aggregating species | partitions to the bicelle | clear NOE cross-peaks to the surfactant shell
O=c1oc2ccc(O)cc2s1 [Fragment 5, 5-hydroxy-1,3-benzoxathiol-2-one] | a small population of large aggregating species | full partitioning into the hydrophobic core of the bicelles | the majority of the fragment must reside in the alkane phase of the reverse micelle
COCCNCc1ccncc1.Cl [Fragment 6, (2-methoxyethyl)(4-pyridinylmethyl)amine hydrochloride] | – | no NOE cross-peaks to bicelle surfactants were observed | prefers to reside in the water core of the mmRM

— paper PMC11267533, “Ligandability at the Membrane Interface of GPx4 Revealed through a Reverse Micelle Fragment Screening Platform” (JACS Au, 2024)
